The source of these data is patent US6632828B2, “Substituted imidazole neuropeptide Y Y5 receptor antagonists” (Schering Corporation, priority 1999, dated 2003).

This assay has as its target T1, Human NPY Y5 receptors (Homo sapiens, UniProt Q15761).
T1 construct: expressed in transfected cells; host or cells: CHO cells (membrane protein)
T1 sequence (Q15761 1-445): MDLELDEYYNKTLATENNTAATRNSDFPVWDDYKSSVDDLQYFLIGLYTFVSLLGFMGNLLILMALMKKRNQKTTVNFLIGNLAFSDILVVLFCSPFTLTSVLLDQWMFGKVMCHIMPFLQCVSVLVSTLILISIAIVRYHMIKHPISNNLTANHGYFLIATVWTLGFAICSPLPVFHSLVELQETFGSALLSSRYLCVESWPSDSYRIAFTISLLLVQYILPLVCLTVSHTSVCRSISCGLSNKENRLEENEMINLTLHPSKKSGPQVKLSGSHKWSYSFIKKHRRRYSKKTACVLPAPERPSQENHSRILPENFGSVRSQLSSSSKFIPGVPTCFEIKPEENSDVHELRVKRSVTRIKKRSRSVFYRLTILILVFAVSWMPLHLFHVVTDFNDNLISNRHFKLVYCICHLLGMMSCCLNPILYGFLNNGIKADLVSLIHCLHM
Description: NPY Receptor Binding Assay. To be noted: Human NPY Y5 receptors expressed in CHO cells; 0.1 nM 125I-peptide YY; read-out: r/h Y5 Ki. How it is done:
NPY Receptor Binding Assay
Human NPY Y5 receptors were expressed in CHO cells. Binding assays were performed in 50 mM HEPES, pH 7.2, 2.5 mM CaCl2, 1 mM MgCl2 and 0.1% BSA containing 5-10 μg of membrane protein and 0.1 nM ^125I-peptide YY in a total volume of 200 μl. Non-specific binding was determined in the presence of 1 uM NPY. The reaction mixtures were incubated for 90 minutes at room temperature, then filtered through Millipore MAFC glass fiber filter plates which had been pre-soaked in 0.5% polyethyleneimine. The filters were washed with phosphate-buffered saline, and radioactivity was measured in a Packard TopCount scintillation counter.

For `FC(F)(F)c1cccc(-c2c[nH]c(C34CC5CC(CC(C5)C3)C4)n2)c1` [Example 1A], the Ki stood at 3 nM.
Under `COC(=O)c1cccc(-c2nc(-c3cccc(C(F)(F)F)c3)c[nH]2)c1` [Example 1B] stands 52 nM; under `O=C(Nc1ccccc1)c1cccc(-c2nc(-c3cccc(C(F)(F)F)c3)c[nH]2)c1` [Example 2A], 315 nM; under `FC(F)(F)c1cccc(-c2c[nH]c(-c3cccc(CN4CCCCC4)c3)n2)c1` [Example 3], 17 nM.
Take `CS(=O)(=O)Nc1cccc(-c2nc(-c3cccc(C(F)(F)F)c3)c[nH]2)c1` [Example 5A]: the Ki turned out to be 1.4 nM.
In the case of `CN(c1cccc(-c2nc(-c3cccc(C(F)(F)F)c3)c[nH]2)c1)S(C)(=O)=O` [Example 6A] it was 2.1 nM.
In the case of `O=C(Nc1cccc(-c2nc(-c3cccc(C(F)(F)F)c3)c[nH]2)c1)c1ccccc1` [Example 10A], the Ki was found to be 63 nM.
In the case of `FC(F)(F)c1cccc(-c2c[nH]c(C3=CCN(c4ccccn4)CC3)n2)c1` [Example 19] it was 1.7 nM; in that of `CS(=O)(=O)N1CCC(c2nc(-c3cc(Cl)cc(Cl)c3)c[nH]2)CC1` [Example 21C], 2 nM; in that of `FC(F)(F)c1cccc(-c2c[nH]c(N3CCN(c4ccccn4)CC3)n2)c1` [Example 26], 1.4 nM.
